Test results reported in US10130638B2, “Prevention of adverse effects caused by CD3 specific binding domains” (AMGEN RESEARCH (MUNICH) GMBH, priority 2010, dated 2018).
“Also recorded” adds a separate entry of the source.

Legend:
[1] = system: DLBCL patients; assay: Phase I trial in DLBCL patients: glucocorticoid cohorts, dose-limiting toxicities (DLT); assay type: in vivo, human; settings: for Safety assessment of cohort: DLBCL cohorts, antibody 5/15/60 μg/m2/d with glucocorticoid medication
Method: A Phase I clinical trial was performed in patients with various B-NHL including DLBCL to evaluate the CD19×CD3 bispecific antibody construct in DLBCL patients. Patients were treated for 4-8-weeks by continuous i.v. administration of the antibody with the following step-wise dosing regimen: first week at 5 μg/m^2/d, second week at 15 μg/m^2/d and for the remaining treatment period at 60 μg/m^2/d.
Two cohorts each with 6 DLBCL patients were enrolled. The two cohorts solely differed by the dose and schedule of the glucocorticoid medication administered at the beginning of the antibody infusion for mitigation of adverse events.
Out of the twelve patients, 5 were male and 7 female. The median age was 57 years (range from 24 to 78 years). Patients had received a median of 4 prior regimens (range from 2-6). All patients had been exposed to rituximab. Eight of the 12 patients had undergone ASCT. International prognostic index (IPI) at screening ranged from 1 to 3 with a median of 2.

[2] = cited from earlier work
[3] = system: patients treated with blinatumomab; assay: Dexamethasone prophylaxis to prevent neurological adverse events during blinatumomab treatment; assay type: in vivo, human; settings: Patient 108-010, trial 103-104, DLBCL; as other patients (20 mg dexamethasone 12 h and 1 h before) plus 100 mg prednisolone one hour before start of infusion
Method: Besides the therapeutic use of dexamethasone to mitigate neurological adverse events, dexamethasone was also used as prophylaxis in order to prevent neurological adverse events.
(§1) Each of the following 5 patients in trial 103-104 (all with DLBCL) were treated with blinatumomab continuous infusion at 5 μg/m2/d for the 1st week, then 15 μg/m2/d for the 2nd week, and then 60 μg/m2/d for the remaining treatment period that could an additional 2-6 weeks.

[4] = system: patients with B cell malignancies; settings: cited from earlier work
[5] = system: lymphoma target cells; settings: cited from earlier work
[6] = system: malignant CD19 positive lymphocytes; assay: Tumour response to blinatumomab in patients given dexamethasone prophylaxis; assay type: in vivo, human
Source text: By “complete response” is intended an absence of clinically detectable disease with normalization of any previously abnormal imaging studies such as radiographic studies. Such a response preferably persists for at least 4 to 8 weeks, sometimes 6 to 8 weeks or more than 8, 10, 12, 14, 16, 18 or 20 weeks or longer, following treatment according to the invention. Alternatively, an improvement in the disease may be categorized as being a partial response.
Detailed remission and response definitions for NHL patients are used according to Cheson et al., 1999, J Clin Oncol. April; 17(4):1244
By “partial response” is intended at least about a 50% decrease in all measurable tumor burden (i.e., the number of malignant cells present in the patient, or the measured bulk of tumor masses) in the absence of new lesions and persisting for 4 to 8 weeks or more than 8, 10, 12, 14, 16, 18 or 20 weeks or longer. A “complete response” does, however, not necessarily indicate that a disease has been cured, since a patient may relapse. However, if so, the patient can again be treated with a composition comprising a CD19×CD3 bispecific antibody as described herein.
as §1

[7] = system: patients with B-NHL; assay: Neurological/psychiatric adverse events under blinatumomab continuous infusion; assay type: in vivo, human
Method: For the clinical trials in connection with the application of a CD19×CD3 bispecific single chain antibody for the treatment of tumorous mass of lymph node tissue and/or extranodal lymphoma caused by DLBCL, the present inventors had to develop a treatment regime which was efficient and would be well tolerated by most of the patients. To this end, the present inventors applied a step-wise application of a CD19×CD3 bispecific single chain antibody in that 5/15/60 μg/m^2/24 h was administered to patients. […] Also contemplated in the step-wise administration of a CD19×CD3 bispecific single chain antibody is a treatment regime using two of the dosages, such as 5/15 μg/m^2/24 h, 5/60 μg/m^2/24 h, or 15/60 μg/m^2/24 h for the duration of the patient's treatment. The appropriate dosage can be selected by the clinician on the basis of efficacy, tolerability and safety with a minimum of adverse effects in the patient.

[8] = non-Hodgkin's lymphoma patients

With `C[C@@H]1C[C@H]2[C@@H]3CCC4=CC(=O)C=C[C@]4(C)[C@@]3(F)[C@@H](O)C[C@]2(C)[C@@]1(O)C(=O)CO` [Dexamethasone] as the molecule, how does the “Safety assessment of cohort” value [1] read?
Its value is “considered safe”.

And the DLT ([1]; prophylactic dexamethasone cohort: 3×8 mg at start of infusion or dose increase, 3×6 mg or 3×4 mg on following 2 days, first two patients)?
Its DLT is “one of the first two patients having a DLT”.

And the DLT ([1]; “early dexamethasone” schedule: 20 mg at −12 to −6 hours and −1 hour, 3×8 mg during following 2 days, total of 5 DLBCL patients)?
Its DLT is “no DLT was observed”.

With `C[C@]12CCC(=O)C=C1CC[C@@H]1[C@@H]2[C@@H](O)C[C@@]2(C)[C@H]1CC[C@]2(O)C(=O)CO` [Hydrocortisone] as the molecule, how does the Biologic half-life [2] read?
Its Biologic half-life is 8-12 hrs.

Which Biologic half-life [2] does the source give for `C[C@H]1C[C@@H]2[C@H]([C@@H](O)C[C@@]3(C)[C@H]2CC[C@]3(O)C(=O)CO)[C@@]2(C)C=CC(=O)C=C12` [Methylprednisolone] here?
Its Biologic half-life is 18-36 hrs.

For `C[C@]12C=CC(=O)C=C1CC[C@@H]1[C@@H]2[C@@H](O)C[C@@]2(C)[C@H]1CC[C@]2(O)C(=O)CO` [Prednisolone], which Biologic half-life [2] is on record?
The Biologic half-life was 18-36 hrs.

What about the “Discontinuation due to neurological/psychiatric adverse events” value [3] of the same molecule?
Its value is “did not have to discontinue”.

What about the “Safety assessment of cohort” value [1] of the same molecule?
Its value is “considered safe”.

And the DLT ([1]; prednisolone DLBCL cohort: 100 mg prednisolone 1 hour prior to start, antibody 5/15/60 μg/m2/d)?
The DLT was “just one DLT (reversible CNS event grade 3)”.

With `C[C@]12C=CC(=O)C=C1CC[C@@H]1[C@@H]2C(=O)C[C@@]2(C)[C@H]1CC[C@]2(O)C(=O)CO` [Prednisone] as the molecule, how does the Biologic half-life [2] read?
The Biologic half-life was 18-36 hrs.

Which “Patients with early neurological reaction (confusion, ataxia, speech disorder, disorientation)” value ([4]; escalating doses as bolus infusions, B cell malignancies, retrospective analysis) does the source give for Blinatumomab here?
The value was 7 out of 22.

And the Cytokine release ([4]; patient with B-CLL, 20 minute-infusions of 3 and 10 microgram, WO 99/54440)?
The Cytokine release was “release of TNF, IL-6 and IL-8 has been found”.

What about the “Dose leading to elimination of lymphoma target cells in blood (doses as low as)” value ([5]; continuously administered over four weeks, non-Hodgkin's lymphoma patients) of the same molecule?
The value was 0.005 milligrams per square meter per day.

What about the “Patients with tumor regression” value ([5]; dose level 0.06 milligrams/m^2/d) of the same molecule?
The value was “all seven patients”.

What about the “Dose level at which partial and complete tumor regressions were first observed” value [5, 8] of the same molecule?
The value was 0.015 milligrams/m^2/d.

And the “Tumor cells in bone marrow and liver” value [5, 8]?
Its value is “clearance of tumor cells from bone marrow and liver”.

And the Tumour response ([6]; DLBCL patients with “early dexamethasone” schedule, Phase I)?
The Tumour response was “objective responses have been observed”.

What about the Tumour response ([6]; Patient 155-001, relapsed ALL, blinatumomab 15 μg/m2/d 16 days, dexamethasone prophylaxis 8 mg) of the same molecule?
The Tumour response was “complete remission”.

What about the Tumour response ([6]; patient with ALL, blinatumomab 15 μg/m2/d, dexamethasone prophylaxis days 1-3) of the same molecule?
The Tumour response was “complete remission”.

And the “Tumour response of the lymphoma” value ([6]; trial 103-104, DLBCL, blinatumomab 5/15/60 μg/m2/d, 20 mg dexamethasone prophylaxis, one patient per block)?
Its value is “objective response; also recorded: complete remission”.

What about the “Adverse effects, in particular neurological/psychiatric events, with step-wise application” value ([7]; DLBCL patients, step-wise 5/15/60 μg/m2/24 h) of the same molecule?
The value was “reduced in number, ameliorated and even prevented”.

And the Neurological adverse events ([7]; Patient 109-036, follicular lymphoma, starting day 11, four days after step from 5 to 60 μg/m2/d)?
The Neurological adverse events was “neurological adverse events (tremor and apraxia)”.

What about the Neurological adverse events ([7]; Patient 109-038, DLBCL, 5/15/60 μg/m2/d, day 15) of the same molecule?
The Neurological adverse events was “developed intention tremor”.

And the Neurological adverse events ([7]; Patient 109-039, MCL, 5/15/60 μg/m2/d, day 17)?
Its Neurological adverse events is “developed tremor and slight speech disturbance”.

What about the “Treatment stop due to neurological/psychiatric adverse events” value ([7]; Patient 135-001, DLBCL, day 4 after step to 60 μg/m2/d, too fast to intervene with dexamethasone) of the same molecule?
The value was “had to stop due to neurological/psychiatric adverse events”.

And the Neurological adverse events ([7]; Patient 153-002, MCL, 5/15/60 μg/m2/d, day 4)?
Its Neurological adverse events is “developed slight speech problems”.

What about the “Treatment stop due to neurological adverse event” value ([7]; Patient 153-002, MCL, day 22, paresis disappeared without intervention) of the same molecule?
The value was “had to stop treatment due to paresis”.
